Patent publication EP1263420B1 (priority 2000, dated 2001)
“Also recorded” adds a separate entry of the source.

Legend:
lung tissue RARs = assay: Western blot of SENCAR mouse lung tissue after dietary RA; type: in vivo
Protocol: (§1) The experimental groups were divided in two groups of five mice (Table 5) each including a low and high dose group that were fed either a physiological RA diet of 3µg/g diet) or a pharmacological RA diet (30µg/g diet) for 75 weeks, respectively.
(§2) SENCAR mice (30) were divided into six experimental groups. The experimental groups were as follows (Table 7): groups 1, 3 and 5 (5 mice each) were fed a physiological RA diet (3µg/g diet) for 1, 14 and 28 days; groups 2, 4 and 6 (each of 5 mice) were fed a pharmacological RA diet (30µg/g diet) for 1, 14 and 28 days.
(§3) Polyclonal rabbit anti-mouse antibodies against RAR, and (SANTA CRUZ Biotechnology Inc., San Francisco, CA) were used. BM Chemiluminescense Western Blotting Kit (Mouse/Rabbit) was used (Boehringer Mannheim Corporation, Indianapolis) for the Westerns.
Tissues were collected, frozen in dry ice and kept at -70°C until used. 500mg aliquots were diced in small pieces and homogenized in 300µl of cold PBS, using the hand held homogenizer for 2~3 minutes. Sample and washes were centrifuged at 5000xg for 20 minutes. The pellet was suspended in 400 µl of ice-cold Buffer A [2µl 0.5M EDTA, 10µl 100mM EGTA, 50µl 100mM PMSF, 10µl 1M DTT, 10ml (10mM HEPES pH 7.9 + 10mM KCl)], and left at ice temperature for 15 minutes. 25 µl of 10% solution of NP-40 was added and samples were mixed in a vortex vigorously for 10 seconds. […]

TGase II [1] = assay: TGase II activity in cultured MCF-7 cells; type: cell-based, human
Protocol: MCF-7 cells were seeded at a density of 1.5 x 10^5 cells/ml medium (500ml DMEM + 56.2ml FBS + 5.6m1 AB/AM) in 6cm diameter dishes for 24 hours and treated with either DMSO, RA, or 13-cis RA at 10^-6 M and grown to confluence (about 72 hours). Cells were harvested and Transglutaminase II activity was measured as described below. Nebulizer solution, inhalation procedures, details of animal housing are described below.
Cultured cells were placed in 100 µl scraping buffer [A: 2800µl (400µl 0.5M Na-Phosphate, 500µl 0.01M EDTA, 100µl 1M DTT , 9ml PBS total 10ml) + B:700µl (10µl 20mg/ml PMSF 790µl PBS total 800µl)] for each dish. Cells were broken by a sonicator and kept in ice until used. TGase II assay was conducted as described below and previously {8217}.
Enzyme assay mixtures were prepared by adding 80µl of SUBSTRATE mixture (322.8µl H2O, 120µl 0.5M NaBorate, 60µl 0.01M EDTA, 60µl 0.1M CaCl2, 6µl 1M DTT, 240µl dimethyl casein, 30µl Triton X-100, 1.2µl [^3H]-Putrescine, 120µl Putrescine) to 20µl sample, 20µl scraping buffer for blank control , 20 µl (18µl scraping buffer + 2µl TGase II) for positive control. Samples were mixed in 15ml tubes, the tubes were shaken before putting them into a 28°C water bath for 30 minutes. Reactions were slowed down in an ice bath. 80µl of the incubation mixture was adsorbed onto paper disks. These were immediately dropped into cold 10% TCA (0.1% Putrescine) and washed with agitation for 7 minutes, followed by 2 additional washes with 5% TCA (0.05% putrescine) for 5~7 minutes, and once more with cold (-20°C) 95% ethanol for 5 minutes. Paper disks were dried and placed into 5ml Aquasol, and counted in a Liquid Scintillation Counter. Protein concentration determination was conducted by the Bradford method.

TGase II [2] = assay: TGase II assay of SENCAR mouse liver tissue after dietary RA; type: in vivo; settings: 75 Weeks
Protocol: The supernatant was removed and kept in ice until used.
Reactions were slowed down in an ice bath. […] Protein concentration determination was conducted by the Bradford method.

RARγ = assay: Western blot of SENCAR mouse liver after dietary RA; type: in vivo; settings: for RARγ densitometric analysis: male SENCAR mouse liver
Protocol: as §1, §2, §3
(§4) Tissues were collected, frozen in dry ice and kept at -70°C until used. 500mg aliquots were diced in small pieces and homogenized in 300µl of cold PBS, using the hand held homogenizer for 2~3 minutes. Sample and washes were centrifuged at 5000xg for 20 minutes. The pellet was suspended in 400 µl of ice-cold Buffer A [2µl 0.5M EDTA, 10µl 100mM EGTA, 50µl 100mM PMSF, 10µl 1M DTT, 10ml (10mM HEPES pH 7.9 + 10mM KCl)], and left at ice temperature for 15 minutes. 25 µl of 10% solution of NP-40 was added and samples were mixed in a vortex vigorously for 10 seconds. Samples were centrifuged at 14,000xg for 1 minute at 4°C and the pellet treated once more in this fashion (resuspended etc.). The supernatant was removed and 100µl of ice-cold Buffer C [4µl 0.5M EDTA, 20µl 100mM EGTA, 20µl 100mM PMSF, 2µl 1 M DTT, 2ml (20mM HEPES pH 7.9 + 0.4M NaCl)] was added. Pellets were resuspended by tapping gently on the bottom of the Eppendorf tubes. Samples were rocked vigorously in a bucket of ice on an orbital shaker for 30 minutes. Samples were centrifuged at 14,000 xg for 5 minutes at 4°C. Protein determination of supernatant was conducted by the Bradford method.
(§5) Samples were prepared by adding one part of the Sample Buffer to one part of the sample and mixing well. Samples were heated at 95°C for 5 minutes to induce denaturation. 5µl of Rainbow Standard and 5µl ofBiotinylated Molecular Marker were added to parallel wells. 20µg protein per sample was loaded in each lane. Electrophoresis was performed with voltage set at 125V for about 1 ~ 1.5 hours. Gel transfer was executed at 25V for 2 hours. The membrane was stained in Ponceau S. for 5 minutes and destained with one wash of 5% acetic acid. The membrane was then washed in TBS solution until the staining disappeared. Membranes were incubated in 1ml blocking solution and 9ml TBS for 60 minutes. Membranes were incubated in 1ml of blocking solution and 19ml TBS along with 20µl primary antibody solution overnight (dilution of 1 : 1000). Membranes were washed in PBS-Tween 20, 3 times for 10 minutes each. They were finally incubated in 1ml blocking solution and 19ml TBS along with 20µl Antibiotin HRP - Linked Antibody and 2µl of secondary (rabbit anti-mouse antibody) (1 : 10,000 dilution) for 30 minutes. The membranes were washed in PBS - Tween 20, 4 times for 10 minutes each. The film was exposed for development and detection.

RARβ = assay: as above; type: in vivo; settings: for RARβ densitometric analysis: male SENCAR mouse liver
Protocol: as §1, §2, §3, §4, §5

RARα = assay: as above; type: in vivo; settings: for RARα densitometric analysis: male SENCAR mouse liver
Protocol: as §1, §2, §3, §4, §5

[3] = 30µg/g diet versus 3µg/g diet, 75 weeks
[4] = pharmacological dietary RA over physiological RA (3µg/g diet), day 1

With `CC1=C(/C=C/C(C)=C/C=C/C(C)=C/C(=O)O)C(C)(C)CCC1` [RA, all-trans-retinoic acid] the “induction of lung tissue RARs” value (lung tissue RARs; long term feeding, 30µg/g diet) was “failed to induce RARs”, the “effect on lung tissue RARs” value (lung tissue RARs; time course 1, 14 and 28 days, 30µg/g versus 3µg/g diet, not shown) was “no effect; also recorded: without any measurable effect on lung tissue RARs” and the fold induction at 1 µM (TGase II [1]; Homo sapiens, MCF7, 72 h, read-out: stimulating TGase II activity) was 7.4. The “TGase II Activity” value (TGase II [1]; MCF-7 cells, 10^-6 M, 72 hours, DMSO control 0.183) was 1.359 +/- 0.098 picomoles/µg protein/30 minutes, the “TGase II assay DPM/µg protein” value (TGase II [2]; pharmacological RA diet 30µg/g) was 49,260 DPM/µg protein and the “TGase II assay DPM/µg protein” value (TGase II [2]; physiological RA diet 3µg/g) was 9,820 DPM/µg protein. For the same compound, the “upregulated liver RAR (γ)” value (RARγ; [3]) was 12.5 fold, the RARγ densitometric analysis (RARγ; 3pg/g diet as printed, 75 weeks) was 23.1 +/- 6.7 IDV and the RARγ densitometric analysis (RARγ; 30µg/g diet, 75 weeks) was 288 +/- 17.4 IDV. For the same compound, the “stimulated liver RAR (γ)” value (RARγ; [4]) was 2.1 fold, the “upregulated liver RAR (β)” value (RARβ; [3]) was 13.5 fold and the RARβ densitometric analysis (RARβ; 3µg/g diet, 75 weeks) was 18.9 +/- 7.4 IDV. For the same compound, the RARβ densitometric analysis (RARβ; 30µg/g diet, 75 weeks) was 254 +/- 31.9 IDV, the “stimulated liver RAR (β)” value (RARβ; [4]) was 4 fold and the “upregulated liver RAR (α)” value (RARα; [3]) was 21.8 fold. The RARα densitometric analysis (RARα; 3µg/g diet, 75 weeks) was 12.1 +/- 7.2 IDV, the RARα densitometric analysis (RARα; 30µg/g diet, 75 weeks) was 264 +/- 21.3 IDV and the “stimulated liver RAR (α)” value (RARα; [4]) was 2 fold.
